Test [1] has as its target T1, human recombinant HDAC6 (Homo sapiens, UniProt Q9UBN7).
T1 construct: purchased Calbiochem 382180
T1 sequence (Q9UBN7 1-1215): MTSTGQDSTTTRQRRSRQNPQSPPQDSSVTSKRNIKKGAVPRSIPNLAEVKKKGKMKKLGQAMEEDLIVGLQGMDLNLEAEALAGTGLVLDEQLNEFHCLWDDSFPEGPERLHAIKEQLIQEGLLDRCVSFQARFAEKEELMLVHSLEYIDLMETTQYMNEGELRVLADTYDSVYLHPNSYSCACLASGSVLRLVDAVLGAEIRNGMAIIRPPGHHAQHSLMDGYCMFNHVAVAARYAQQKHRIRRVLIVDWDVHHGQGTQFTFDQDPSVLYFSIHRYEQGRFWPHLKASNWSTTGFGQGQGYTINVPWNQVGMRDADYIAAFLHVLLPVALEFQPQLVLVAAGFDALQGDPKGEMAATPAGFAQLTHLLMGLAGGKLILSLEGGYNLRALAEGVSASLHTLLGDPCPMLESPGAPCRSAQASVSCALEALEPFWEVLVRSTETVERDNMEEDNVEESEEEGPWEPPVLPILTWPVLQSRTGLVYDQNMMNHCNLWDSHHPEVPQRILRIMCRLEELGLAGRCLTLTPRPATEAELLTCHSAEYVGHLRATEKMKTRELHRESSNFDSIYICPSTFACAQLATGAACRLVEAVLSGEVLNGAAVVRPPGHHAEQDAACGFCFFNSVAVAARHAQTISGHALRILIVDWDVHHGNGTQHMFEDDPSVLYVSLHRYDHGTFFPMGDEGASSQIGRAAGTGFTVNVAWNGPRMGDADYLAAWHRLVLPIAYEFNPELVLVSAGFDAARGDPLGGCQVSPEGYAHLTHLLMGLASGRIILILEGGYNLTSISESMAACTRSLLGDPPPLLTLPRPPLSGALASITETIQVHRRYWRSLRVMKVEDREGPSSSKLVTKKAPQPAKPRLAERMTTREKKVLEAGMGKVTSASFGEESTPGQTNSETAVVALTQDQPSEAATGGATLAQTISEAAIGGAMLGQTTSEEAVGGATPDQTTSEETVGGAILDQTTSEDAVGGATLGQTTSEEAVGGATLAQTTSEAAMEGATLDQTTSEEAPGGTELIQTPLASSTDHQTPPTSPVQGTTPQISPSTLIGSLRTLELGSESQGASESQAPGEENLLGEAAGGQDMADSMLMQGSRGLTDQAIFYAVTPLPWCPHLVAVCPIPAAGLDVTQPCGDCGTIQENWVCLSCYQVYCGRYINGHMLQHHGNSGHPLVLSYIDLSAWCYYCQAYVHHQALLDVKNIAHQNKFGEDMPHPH
In words: HDAC6 enzyme activity inhibition (fluorimetric, in vitro). The format is biochemical. The note with it: samples at 0.1, 1, 10, 100 and 1000 nM. The essentials:
(§1)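 Recombinant human HDAC1 or HDAC6 (0.3 μg) with Fluor de Lys-SIRT1 substrate at […], 60 min at 37 °C, then developer 30 min; fluorescence Ex 360/Em 460. Compounds at 100–10000 nM for HDAC1 and 0.1–1000 nM for HDAC6; IC50 calculated.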

Test [2] concerns the target T2, human recombinant HDAC1 (Homo sapiens, UniProt Q13547).
T2 construct: purchased Enzolifesciences BML-SE456
The test can be described thus: HDAC1 enzyme activity inhibition (HDAC1 Fluorimetric Drug Discovery Assay Kit, in vitro). The format is biochemical. The note with it: samples at 100, 1000 and 10000 nM. The essentials:
as §1

Each structure is given as a SMILES string.

T2 sequence (Q13547 whole entry): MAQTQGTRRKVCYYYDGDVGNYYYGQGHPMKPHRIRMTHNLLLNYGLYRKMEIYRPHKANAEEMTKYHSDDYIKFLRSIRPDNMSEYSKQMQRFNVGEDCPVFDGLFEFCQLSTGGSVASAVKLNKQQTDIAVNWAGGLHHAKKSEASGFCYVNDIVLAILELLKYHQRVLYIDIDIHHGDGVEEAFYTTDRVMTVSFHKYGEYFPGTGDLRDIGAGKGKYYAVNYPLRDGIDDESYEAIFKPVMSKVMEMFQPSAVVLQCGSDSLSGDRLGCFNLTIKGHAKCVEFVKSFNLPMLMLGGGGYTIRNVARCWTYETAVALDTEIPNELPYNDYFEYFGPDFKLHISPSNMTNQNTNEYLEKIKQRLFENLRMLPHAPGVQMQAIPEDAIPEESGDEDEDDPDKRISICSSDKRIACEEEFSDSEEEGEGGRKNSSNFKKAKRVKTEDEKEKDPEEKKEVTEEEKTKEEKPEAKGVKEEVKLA

`N=S1(=O)CCN(S(=O)(=O)N(Cc2ccc(-c3nnc(C(F)F)o3)cn2)c2ccc(F)cc2)CC1` [Compound 76, N-[[5-[5-(difluoromethyl)-1,3,4-oxadiazol-2-yl]-2-pyridyl]methyl]-N-(4-fluorophenyl)-1-imino-1-oxo-1,4-thiazinan-4-sulfonamide]: the IC50 in test [1] was 39.9 nM; in test [2] it was above 10 µM.
Taken in the same sequence, the figures for `N=S1(=O)CCN(S(=O)(=O)N(Cc2ncc(-c3nnc(C(F)F)o3)cc2F)c2ccc(F)cc2)CC1` [Compound 77, N-[[5-[5-(difluoromethyl)-1,3,4-oxadiazol-2-yl]-3-fluoro-2-pyridyl]methyl]-N-(4-fluorophenyl)-1-imino-1-oxo-1,4-thiazinan-4-sulfonamide] were 51.6 nM and above 10 µM.
Taken in the same sequence, the figures for `N=S1(=O)CCN(S(=O)(=O)N(Cc2ccc(-c3nnc(C(F)F)o3)cc2F)c2ccc(F)cc2)CC1` [Compound 78, N-[[4-[5-(difluoromethyl)-1,3,4-oxadiazol-2-yl]-2-fluoro-phenyl]methyl]-N-(4-fluorophenyl)-1-imino-1-oxo-1,4-thiazinan-4-sulfonamide] were 78.7 nM and above 10 µM.
In the same order, the values of `O=C(N=S1(=O)CCN(C(=O)N(Cc2ccc(-c3nnc(C(F)F)o3)nn2)c2cccc(F)c2)CC1)OCc1ccccc1` [Compound 79, Benzyl N-[4-[[6-[5-(difluoromethyl)-1,3,4-oxadiazol-2-yl]pyridazin-3-yl]methyl-(3-fluorophenyl)carbamoyl]-1-oxo-1,4-thiazinan-1-ylidene]carbamate] are 87.1 nM and above 10 µM.
As to `N=S1(=O)CCN(C(=O)N(Cc2ccc(-c3nnc(C(F)F)o3)nn2)c2cccc(F)c2)CC1` [Compound 80, N-[[6-[5-(difluoromethyl)-1,3,4-oxadiazol-2-yl]pyridazin-3-yl]methyl]-N-(3-fluorophenyl)-1-imino-1-oxo-1,4-thiazinan-4-carboxamide], the concentration for half-maximal inhibition (IC50) in test [1] is 146 nM; in test [2], above 10 µM.
Taken in the same sequence, the figures for `N=S1(=O)CCN(C(=O)N(Cc2cnc(-c3nnc(C(F)F)o3)cn2)c2cccc(F)c2)CC1` [Compound 81, N-[[5-[5-(difluoromethyl)-1,3,4-oxadiazol-2-yl]pyrazin-2-yl]methyl]-N-(3-fluorophenyl)-1-imino-1-oxo-1,4-thiazinan-4-carboxamide] were 241 nM and above 10 µM.
On to `CC1CN(C(=O)N(Cc2ccc(-c3nnc(C(F)F)o3)cc2F)c2ccccc2)CCS1(=N)=O` (centres unmarked) [Compound 82, N-[[4-[5-(difluoromethyl)-1,3,4-oxadiazol-2-yl]-2-fluoro-phenyl]methyl]-1-imino-2-methyl-1-oxo-N-phenyl-1,4-thiazinan-4-carboxamide], for which the half-inhibitory concentration (IC50) was 93.1 nM in test [1] and above 10 µM in test [2].
In the same order, the values of `N=S1(=O)CC(N2CC3(CN(C(=O)N(Cc4ccc(-c5nnc(C(F)F)o5)cc4F)c4ccccc4)C3)C2)C1` (centres unmarked) [Compound 83, N-[[4-[5-(difluoromethyl)-1,3,4-oxadiazol-2-yl]-2-fluoro-phenyl]methyl]-6-(1-imino-1-oxo-thiethan-3-yl)-N-phenyl-2,6-diazaspiro[3.3]heptan-2-carboxamide] are 71.3 nM and above 10 µM.
Taken in the same sequence, the figures for `N=S1(=O)CC(N2C[C@@H]3C[C@H]2CN3C(=O)N(Cc2ccc(-c3nnc(C(F)F)o3)cn2)c2ccccc2)C1` (stereo partly drawn) [Compound 84, (1S,4S)—N-[[5-[5-(difluoromethyl)-1,3,4-oxadiazol-2-yl]-2-pyridyl]methyl]-5-(1-imino-1-oxo-thiethan-3-yl)-N-phenyl-2,5-diazabicyclo[2.2.1]heptan-2-carboxamide] were 56 nM and above 10 µM.
In the case of `CC1CN(C(=O)N(Cc2ccc(-c3nnc(C(F)F)o3)cn2)c2ccccc2)CCS1(=N)=O` (centres unmarked) [Compound 85, N-[[5-[5-(difluoromethyl)-1,3,4-oxadiazol-2-yl]-2-pyridyl]methyl]-1-imino-2-methyl-1-oxo-N-phenyl-1,4-thiazinan-4-carboxamide], the IC50 is 74.6 nM in test [1] and above 10 µM in test [2].
In the same order, the values of `N=S1(=O)CCN(S(=O)(=O)N(Cc2ncc(-c3nnc(C(F)F)o3)s2)c2ccccc2)CC1` [Compound 86, N-[[5-[5-(difluoromethyl)-1,3,4-oxadiazol-2-yl]thiazol-2-yl]methyl]-1-imino-1-oxo-N-phenyl-1,4-thiazinan-4-sulfonamide] are 50.2 nM and above 10 µM.
In the same order, the values of `N=S1(=O)CC(N2C[C@@H]3C[C@H]2CN3c2c(N(Cc3ccc(-c4nnc(C(F)F)o4)cn3)c3ccccc3)c(=O)c2=O)C1` (stereo partly drawn) [Compound 87, 3-[N-[[5-[5-(difluoromethyl)-1,3,4-oxadiazol-2-yl]-2-pyridyl]methyl]anilino]-4-[(1S,4S)-5-(1-imino-1-oxo-thiethane-3-yl)-2,5-diazabicyclo[2.2.1]heptan-2-yl]cyclobut-3-en-1,2-dione] are 37.4 nM and above 10 µM.
Taken in the same sequence, the figures for `N=S1(=O)CC(N2C[C@@H]3C[C@H]2CN3c2c(N(Cc3ccc(-c4nnc(C(F)F)o4)cc3F)c3ccccc3)c(=O)c2=O)C1` (stereo partly drawn) [Compound 89, 3-[N-[[4-[5-(difluoromethyl)-1,3,4-oxadiazol-2-yl]-2-fluoro-phenyl]methyl]anilino]-4-[(1S,4S)-5-(1-imino-1-oxo-thiethan-3-yl)-2,5-diazabicyclo[2.2.1]heptan-2-yl]cyclobut-3-en-1,2-dione] were 34.1 nM and above 10 µM.
As to `CS(=N)(=O)C1CN(C(=O)N(Cc2ccc(-c3nnc(C(F)F)o3)cn2)c2cccc(F)c2)C1` (centres unmarked) [Compound 90, N-[[5-[5-(difluoromethyl)-1,3,4-oxadiazol-2-yl]-2-pyridyl]methyl]-N-(3-fluorophenyl)-3-(methylsulfonimidoyl)azetidin-1-carboxamide], the IC50 in test [1] was 47.3 nM; in test [2] it was above 10 µM.
In the same order, the values of `CS(=N)(=O)C1CN(C(=O)N(Cc2ccc(-c3nnc(C(F)F)o3)cc2F)c2cccc(F)c2)C1` (centres unmarked) [Compound 91, N-[[4-[5-(difluoromethyl)-1,3,4-oxadiazol-2-yl]-2-fluoro-phenyl]methyl]-N-(3-fluorophenyl)-3-(methylsulfonimidoyl)azetidin-1-carboxamide] are 46 nM and above 10 µM.
In the case of `N=S1(=O)CC2(CN(C(=O)N(Cc3ccc(-c4nnc(C(F)F)o4)cc3F)c3ccccc3)C2)C1` [Compound 92, N-[[4-[5-(difluoromethyl)-1,3,4-oxadiazol-2-yl]-2-fluoro-phenyl]methyl]-2-imino-2-oxo-N-phenyl-2lambda6-thia-6-azaspiro[3.3]heptan-6-carboxamide], the values for the IC50 in test [1] and in test [2] were 93.9 nM and above 10 µM, respectively.

A word on the IC50: it is the midpoint of a concentration-inhibition curve.
